Data published in US20240239792A1, “MODULATORS OF BCL-2 OR BCL-2/BCL-XL AND USES THEREOF” (APPICINE THERAPEUTICS (HK) LIMITED, priority 2021, published 2024).

Key:
DOHH2 cells = experiment: CellTiter-Glo cell proliferation assay, DOHH2 cells; type: cell-based; settings: Homo sapiens, DOHH-2, 72 hours
Method in brief: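 GI50 derived from CellTiter-Glo luminescent viability signal. Cells grown in DMEM with 10% FBS received a compound dilution series for 72 h (37 °C, 5% CO2).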

BCL-2 = molecular target: T1, BCL-2 (Homo sapiens, UniProt P10415); experiment: HTRF BCL-2/BAK assay (Cisbio); type: binding; settings: recombinant human Tag1-BCL-2 2 nM, Tag2-BAK 10 nM
T1 construct: purchased Cisbio 63ADK000CB01PEG
T1 sequence (P10415 whole entry): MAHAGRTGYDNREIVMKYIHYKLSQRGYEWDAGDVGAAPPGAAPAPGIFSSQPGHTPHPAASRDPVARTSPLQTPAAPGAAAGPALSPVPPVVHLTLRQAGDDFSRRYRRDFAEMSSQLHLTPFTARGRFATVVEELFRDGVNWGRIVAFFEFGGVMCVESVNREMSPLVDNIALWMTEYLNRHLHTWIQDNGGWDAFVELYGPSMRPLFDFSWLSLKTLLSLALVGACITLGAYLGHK
Method: (§1) Then the pre-mixed anti-Tag1-Eu^3+ and anti-tag2-XL665 were added to the plate and further incubated at room temperature for another 2 hours. The signals ([…]) were read on Envision 2104 instrument. The IC50 for each compound was derived from fitting the signal of 665/615 nM to the increasing compound concentration.
(§2) Using the above assays, the following compounds were tested.

BCL-XL = molecular target: T2, BCL-XL (Homo sapiens, UniProt Q07817); experiment: HTRF BCL-XL/BAK assay (Cisbio); type: binding; settings: recombinant human Tag1-BCL-XL 2 nM, Tag2-BAK 5 nM
T2 construct: purchased Cisbio 63ADK000CB04PEG
T2 sequence (Q07817 whole entry): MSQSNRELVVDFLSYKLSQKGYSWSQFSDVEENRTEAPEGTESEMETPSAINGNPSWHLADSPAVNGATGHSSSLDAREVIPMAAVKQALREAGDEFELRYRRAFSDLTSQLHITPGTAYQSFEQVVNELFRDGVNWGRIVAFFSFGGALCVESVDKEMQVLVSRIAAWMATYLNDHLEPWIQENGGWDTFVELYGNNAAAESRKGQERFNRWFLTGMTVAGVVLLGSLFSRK
Method: as §1, §2

[1] = tested on: RS4;11 subcutaneous xenograft tumor; experiment: In vivo pharmacodynamic study, NOD/SCID RS4;11 subcutaneous xenograft tumor model; parameters: species or system NOD/SCID female mouse; settings: q.d., after 20 days dosing
Method: In general, NOD/SCID RS4;11 subcutaneous xenograft tumor model was established by inoculating 5*10^6/0.1 ml/mouse subcutaneously in the right back of the NOD/SCID female mouse. The animals were checked daily for any effects of treatments on behaviors such as mobility, food and water consumption, body weight gain/loss, eyes, hairs and any other abnormalities. Mortality and clinical signs observed during the study were recorded in the raw data. Animal weight and tumor size were measured every two days during the study. Tumor volume (TV) was calculated as: TV=0.5*a*b^2, wherein a and b represent the measured length and width of tumor, respectively. Relative tumor proliferation inhibition rate (TGIRTV (%)), as an indication of anti-tumor effectiveness, was calculated as: TGIRTV (%)=(1−TRTV/CRTV)*100%, wherein TRTV and CRTV were relative tumor volume (RTV) in treatment group and vehicle control group, respectively. RTV was calculated as: RTV=Vt/V0, wherein Vt and V0 represented the tumor volume measured on day t after dosing and on the first day of dosing. At the end of last dosing, plasma and tumor tissue were collected, weighed, and photographed according to requirements of the study protocol.
The TGIRTV(%) values after 20 days dosing were shown in Table 5 below, where “+++” represented TGIRTV(%)≥[…]; “++” represented 30%<TGIRTV(%)<80%. p.o. stands for “per os”; I.P. stands for “intraperitoneal”; q.d. refers to “once daily”.

CYP2C9 = molecular target: T3, CYP2C9 (Homo sapiens, UniProt P11712); experiment: CYP2C9 activity assay in human liver microsomes, substrate diclofenac; type: in vitro ADME; settings: probe diclofenac, test compound 1 μM, 37° C. 10 min, read-out: Inhibition rate (%) against CYP2C9 Enzyme
T3 construct: from tissue; host or cells: human liver microsomes
T3 sequence (P11712 whole entry): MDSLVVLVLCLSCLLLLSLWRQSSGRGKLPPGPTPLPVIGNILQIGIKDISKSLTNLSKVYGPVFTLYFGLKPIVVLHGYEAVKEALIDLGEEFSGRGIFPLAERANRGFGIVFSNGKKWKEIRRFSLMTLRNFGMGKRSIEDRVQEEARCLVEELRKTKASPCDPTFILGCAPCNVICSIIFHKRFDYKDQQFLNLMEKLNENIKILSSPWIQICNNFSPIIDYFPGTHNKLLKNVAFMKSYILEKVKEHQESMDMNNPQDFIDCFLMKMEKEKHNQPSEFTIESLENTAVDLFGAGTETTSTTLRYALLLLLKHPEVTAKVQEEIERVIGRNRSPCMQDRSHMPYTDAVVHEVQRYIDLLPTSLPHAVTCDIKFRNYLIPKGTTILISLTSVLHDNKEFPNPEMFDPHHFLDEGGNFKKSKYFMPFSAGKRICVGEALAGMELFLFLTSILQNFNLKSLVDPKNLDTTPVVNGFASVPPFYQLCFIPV
Method: In this assay, several exemplary compounds of the present disclosure and a control compound (Venetoclax) were used as the test compounds. In general, the assay was conducted by the following steps: • 1. The solution of test compound, human liver microsomes solution, and substrate (diclofenac) solution were mixed in a 96-well assay plate on ice to, and the final concentration of each test compound is 1 μM; • 2. The 96-well assay plate and NADPH solution were pre-incubated at 37° C. for 5 minutes; • 3. NADPH solution was added to into the assay plates to initiate the reaction; • 4. The assay plate was incubated at 37° C. for 10 min; • 5. The reaction was stopped; and after quenching, a portion of the supernatant was taken from each well for LC/MS analysis; • 6. The inhibition rate was calculated by the following equation: Inhibition rate (%)=(1−Valuetest/Valuecontrol)×100%, where Valuetest refers to the LC/MS data obtained from wells with test compounds and Valuecontrol refers to the LC/MS data obtained from wells without test compound.

SMILES	GI50 (DOHH2 cells) [nM]	IC50 (BCL-2) [nM]	IC50 (BCL-XL) [nM]	TGIRTV(%) ([1]; 25 mg/kg, p.o.)	inhibition at 10 min, 1 µM (CYP2C9) [%]	TGIRTV(%) ([1]; 60 mg/kg, p.o.)	TGIRTV(%) ([1]; 50 mg/kg, p.o.)	TGIRTV(%) ([1]; 21 mg/kg, I.P.)
O=C(NS(=O)(=O)c1ccc(NCCN2CCOCC2)c([N+](=O)[O-])c1)c1ccc(N2CCN(C3CCCCc4c(Cl)cccc43)CC2)cc1Oc1cnc2[nH]ccc2c1 (centres unmarked) [Compound 31, 2-((1H-pyrrolo[2,3-b]pyridin-5-yl)oxy)-4-(4-(1-chloro-6,7,8,9-tetrahydro-5H-benzo[7]annulen-5-yl)piperazin-1-yl)-N-((4-((2-morpholinoethyl)amino)-3-nitrophenyl)sulfonyl)benzamide]	< 50	< 20	20 to 200	++ (30%<TGIRTV(%)<80%)	–	–	–	–
CC(C)(C)OC(=O)N1CCC2(CC1)CC(CNc1ccc(S(=O)(=O)NC(=O)c3ccc(N4CCN([C@@H]5CCCCc6c(Cl)cccc65)CC4)cc3Oc3cnc4[nH]ccc4c3)cc1[N+](=O)[O-])C2 [Compound 100, tert-butyl (R)-2-(((4-(N-(2-((1H-pyrrolo[2,3-b]pyridin-5-yl)oxy)-4-(4-(1-chloro-6,7,8,9-tetrahydro-5H-benzo[7]annulen-5-yl)piperazin-1-yl)benzoyl)sulfamoyl)-2-nitrophenyl)amino)methyl)-7-azaspiro[3.5]nonane-7-carboxylate]	50 to 500	< 20	200 to 2000	–	< 30	–	–	–
CS(=O)(=O)N1CCC2(CC1)CC(CNc1ccc(S(=O)(=O)NC(=O)c3ccc(N4CCN([C@@H]5CCCCc6c(Cl)cccc65)CC4)cc3Oc3cnc4[nH]ccc4c3)cc1[N+](=O)[O-])C2 [Compound 107, (R)-2-((1H-pyrrolo[2,3-b]pyridin-5-yl)oxy)-4-(4-(1-chloro-6,7,8,9-tetrahydro-5H-benzo[7]annulen-5-yl)piperazin-1-yl)-N-((4-(((7-(methylsulfonyl)-7-azaspiro[3.5]nonan-2-yl)methyl)amino)-3-nitrophenyl)sulfonyl)benzamide]	< 50	< 20	20 to 200	–	31	–	–	–
O=C(NS(=O)(=O)c1ccc(NCC2CCOCC2)c([N+](=O)[O-])c1)c1ccc(N2CCN([C@@H]3CCCCc4c(Cl)cccc43)CC2)cc1Oc1cnc2[nH]ccc2c1 [Compound 70, (R)-2-((1H-pyrrolo[2,3-b]pyridin-5-yl)oxy)-4-(4-(1-chloro-6,7,8,9-tetrahydro-5H-benzo[7]annulen-5-yl)piperazin-1-yl)-N-((3-nitro-4-(((tetrahydro-2H-pyran-4-yl)methyl)amino)phenyl)sulfonyl)benzamide]	< 50	< 20	–	–	–	+++ (TGIRTV(%)≥800)	–	–
O=C(NS(=O)(=O)c1ccc(NCC2CC3(CCN(CC(F)(F)F)CC3)C2)c([N+](=O)[O-])c1)c1ccc(N2CCN([C@@H]3CCCCc4c(Cl)cccc43)CC2)cc1Oc1cnc2[nH]ccc2c1 [Compound 115, (R)-2-((1H-pyrrolo[2,3-b]pyridin-5-yl)oxy)-4-(4-(1-chloro-6,7,8,9-tetrahydro-5H-benzo[7]annulen-5-yl)piperazin-1-yl)-N-((3-nitro-4-(((7-(2,2,2-trifluoroethyl)-7-azaspiro[3.5]nonan-2-yl)methyl)amino)phenyl)sulfonyl)benzamide]	50 to 500	< 20	200 to 2000	–	< 30	–	–	–
O=C(NS(=O)(=O)c1ccc(NCC2CC3(CCN(CCF)CC3)C2)c([N+](=O)[O-])c1)c1ccc(N2CCN([C@@H]3CCCCc4c(Cl)cccc43)CC2)cc1Oc1cnc2[nH]ccc2c1 [Compound 114, (R)-2-((1H-pyrrolo[2,3-b]pyridin-5-yl)oxy)-4-(4-(1-chloro-6,7,8,9-tetrahydro-5H-benzo[7]annulen-5-yl)piperazin-1-yl)-N-((4-(((7-(2-fluoroethyl)-7-azaspiro[3.5]nonan-2-yl)methyl)amino)-3-nitrophenyl)sulfonyl)benzamide]	< 50	< 20	< 20	–	< 30	–	+++ (TGIRTV(%)≥800)	–
CC(=O)NCCN1CCC2(CC1)CC(CNc1ccc(S(=O)(=O)NC(=O)c3ccc(N4CCN([C@@H]5CCCCc6c(Cl)cccc65)CC4)cc3Oc3cnc4[nH]ccc4c3)cc1[N+](=O)[O-])C2 [Compound 112, (R)-2-((1H-pyrrolo[2,3-b]pyridin-5-yl)oxy)-N-((4-(((7-(2-acetamidoethyl)-7-azaspiro[3.5]nonan-2-yl)methyl)amino)-3-nitrophenyl)sulfonyl)-4-(4-(1-chloro-6,7,8,9-tetrahydro-5H-benzo[7]annulen-5-yl)piperazin-1-yl)benzamide]	< 50	< 20	< 20	–	33	–	–	–
O=C(NS(=O)(=O)c1ccc(NCC2CC3(CCNCC3)C2)c([N+](=O)[O-])c1)c1ccc(N2CCN([C@@H]3CCCCc4c(Cl)cccc43)CC2)cc1Oc1cnc2[nH]ccc2c1 [Compound 104, (R)-2-((1H-pyrrolo[2,3-b]pyridin-5-yl)oxy)-N-((4-(((7-azaspiro[3.5]nonan-2-yl)methyl)amino)-3-nitrophenyl)sulfonyl)-4-(4-(1-chloro-6,7,8,9-tetrahydro-5H-benzo[7]annulen-5-yl)piperazin-1-yl)benzamide]	< 50	< 20	< 20	–	< 30	–	–	+++ (TGIRTV(%)≥800)
O=C(NS(=O)(=O)c1ccc(NCC2CC3(CCN(CC(F)F)CC3)C2)c([N+](=O)[O-])c1)c1ccc(N2CCN([C@@H]3CCCCc4c(Cl)cccc43)CC2)cc1Oc1cnc2[nH]ccc2c1 [Compound 113, (R)-2-((1H-pyrrolo[2,3-b]pyridin-5-yl)oxy)-4-(4-(1-chloro-6,7,8,9-tetrahydro-5H-benzo[7]annulen-5-yl)piperazin-1-yl)-N-((4-(((7-(2,2-difluoroethyl)-7-azaspiro[3.5]nonan-2-yl)methyl)amino)-3-nitrophenyl)sulfonyl)benzamide]	< 50	< 20	20 to 200	–	< 30	–	+++ (TGIRTV(%)≥800)	–
